For four compounds, TD50 and carcinogen call results are on record in PubChem BioAssay AID1745844 (Carcinogenic Potency Database (CPDB), 2022).

In this data set the test system is rodent lifetime carcinogenesis bioassay, tumor incidence TD50. Put plainly: chronic cancer bioassays in animals – CPDB, compiled studies (AID 1745844).

Calls of active or inactive are those of the source. The rule behind the calls is not given here.

As to `c1ccoc1`, the TD50 (commonly the 50% point of the dose-response relation for the toxic effect studied) was 2.26 mg/kg/day (mouse, strain B6C3F1, females, by gavage, site: adrenal medulla + liver, lesion: pheochromocytoma, benign + hepatocellular adenoma + hepatocellular carcinoma, dosed 104 weeks, study length 105 weeks); 36 mg/kg/day (mouse, strain B6C3F1, females, by gavage, site: adrenal medulla, lesion: pheochromocytoma, benign, dosed 104 weeks, study length 105 weeks); 2.81 mg/kg/day (mouse, strain B6C3F1, females, by gavage, site: any site (literature study), lesion: several types, types named in the paper, dosed 104 weeks, study length 105 weeks); 23.8 mg/kg/day (mouse, strain B6C3F1, females, by gavage, site: forestomach, lesion: squamous-cell papilloma, dosed 104 weeks, study length 105 weeks); 6.85 mg/kg/day (mouse, strain B6C3F1, females, by gavage, site: liver, lesion: carcinoma + hepatocellular carcinoma, dosed 104 weeks, study length 105 weeks); 2.19 mg/kg/day (mouse, strain B6C3F1, females, by gavage, site: liver, lesion: hepatocellular adenoma + hepatocellular carcinoma + neoplastic nodule, dosed 104 weeks, study length 105 weeks). For the same compound, the TD50 is 2.19 mg/kg/day (mouse, strain B6C3F1, females, by gavage, site: liver, lesion: hepatocellular adenoma + hepatocellular carcinoma, dosed 104 weeks, study length 105 weeks); 2.26 mg/kg/day (mouse, strain B6C3F1, females, by gavage, site: liver, lesion: hepatocellular adenoma, dosed 104 weeks, study length 105 weeks); 38.5 mg/kg/day (mouse, strain B6C3F1, females, by gavage, site: lung, lesion: alveolar/bronchiolar adenoma + alveolar/bronchiolar carcinoma, dosed 104 weeks, study length 105 weeks); 3.6 mg/kg/day (mouse, strain B6C3F1, males, by gavage, site: adrenal medulla + liver, lesion: pheochromocytoma, benign + hepatocellular adenoma + hepatocellular carcinoma, dosed 104 weeks, study length 105 weeks); 20.1 mg/kg/day (mouse, strain B6C3F1, males, by gavage, site: adrenal medulla, lesion: pheochromocytoma, benign, dosed 104 weeks, study length 105 weeks); 5.43 mg/kg/day (mouse, strain B6C3F1, males, by gavage, site: any site (literature study), lesion: several types, types named in the paper, dosed 104 weeks, study length 105 weeks). Further, the TD50 by setting is: (mouse, strain B6C3F1, males, by gavage, site: forestomach, lesion: squamous-cell papilloma, dosed 104 weeks, study length 105 weeks) 64.6 mg/kg/day; (mouse, strain B6C3F1, males, by gavage, site: liver, lesion: hepatocellular adenoma + hepatocellular carcinoma + neoplastic nodule, dosed 104 weeks, study length 105 weeks) 3.6 mg/kg/day; (mouse, strain B6C3F1, males, by gavage, site: liver, lesion: hepatocellular adenoma + hepatocellular carcinoma, dosed 104 weeks, study length 105 weeks) 3.6 mg/kg/day; (mouse, strain B6C3F1, males, by gavage, site: liver, lesion: hepatocellular adenoma, dosed 104 weeks, study length 105 weeks) 4.02 mg/kg/day; (mouse, strain B6C3F1, males, by gavage, site: liver, lesion: hepatocellular carcinoma, dosed 104 weeks, study length 105 weeks) 5.13 mg/kg/day; (mouse, strain B6C3F1, males, by gavage, site: lung, lesion: alveolar/bronchiolar adenoma + alveolar/bronchiolar carcinoma, dosed 104 weeks, study length 105 weeks) 21.5 mg/kg/day. The TD50 is, setting by setting: (mouse, strain B6C3F1, males, by gavage, site: lung, lesion: alveolar/bronchiolar adenoma, dosed 104 weeks, study length 105 weeks) 18.2 mg/kg/day; (mouse, strain B6C3F1, males, by gavage, site: multiple organs, lesion: malignant lymphoma, histiocytic type + malignant lymphoma, mixed type, dosed 104 weeks, study length 105 weeks) 11 mg/kg/day; (rat, strain Fischer 344, females, by gavage, site: any site (literature study), lesion: several types, types named in the paper, dosed 103 weeks, study length 104 weeks) 2.83 mg/kg/day; (rat, strain Fischer 344, females, by gavage, site: liver + multiple organs, lesion: cholangiocarcinoma + hepatocellular adenoma + hepatocellular carcinoma + mononuclear-cell leukemia, dosed 103 weeks, study length 104 weeks) 0.543 mg/kg/day; (rat, strain Fischer 344, females, by gavage, site: liver, lesion: cholangiocarcinoma, dosed 103 weeks, study length 104 weeks) 0.395 mg/kg/day; (rat, strain Fischer 344, females, by gavage, site: liver, lesion: hepatocellular adenoma + hepatocellular carcinoma + neoplastic nodule, dosed 103 weeks, study length 104 weeks) 11.2 mg/kg/day. The TD50 is 11.2 mg/kg/day (rat, strain Fischer 344, females, by gavage, site: liver, lesion: hepatocellular adenoma + hepatocellular carcinoma, dosed 103 weeks, study length 104 weeks); 11.8 mg/kg/day (rat, strain Fischer 344, females, by gavage, site: liver, lesion: hepatocellular adenoma, dosed 103 weeks, study length 104 weeks); 5.84 mg/kg/day (rat, strain Fischer 344, females, by gavage, site: multiple organs, lesion: mononuclear-cell leukemia, dosed 103 weeks, study length 104 weeks); 50.7 mg/kg/day (rat, strain Fischer 344, females, by gavage, site: urinary bladder, lesion: transitional-cell papilloma, dosed 103 weeks, study length 104 weeks); 12.7 mg/kg/day (rat, strain Fischer 344, males, by gavage, site: adrenal medulla, lesion: pheochromocytoma, benign, dosed 103 weeks, study length 104 weeks); 1.96 mg/kg/day (rat, strain Fischer 344, males, by gavage, site: any site (literature study), lesion: several types, types named in the paper, dosed 103 weeks, study length 104 weeks). For the same compound, the TD50 is, setting by setting: (rat, strain Fischer 344, males, by gavage, site: liver + multiple organs, lesion: cholangiocarcinoma + hepatocellular adenoma + hepatocellular carcinoma + mononuclear-cell leukemia, dosed 103 weeks, study length 104 weeks) 0.529 mg/kg/day; (rat, strain Fischer 344, males, by gavage, site: liver, lesion: cholangiocarcinoma, dosed 103 weeks, study length 104 weeks) 0.398 mg/kg/day; (rat, strain Fischer 344, males, by gavage, site: liver, lesion: hepatocellular adenoma + hepatocellular carcinoma + neoplastic nodule, dosed 103 weeks, study length 104 weeks) 2.31 mg/kg/day; (rat, strain Fischer 344, males, by gavage, site: liver, lesion: hepatocellular adenoma + hepatocellular carcinoma, dosed 103 weeks, study length 104 weeks) 2.31 mg/kg/day; (rat, strain Fischer 344, males, by gavage, site: liver, lesion: hepatocellular adenoma, dosed 103 weeks, study length 104 weeks) 3.1 mg/kg/day; (rat, strain Fischer 344, males, by gavage, site: liver, lesion: hepatocellular carcinoma, dosed 103 weeks, study length 104 weeks) 6.18 mg/kg/day. The TD50 (rat, strain Fischer 344, males, by gavage, site: multiple organs, lesion: mononuclear-cell leukemia, dosed 103 weeks, study length 104 weeks) is 4.64 mg/kg/day; the TD50 (rat, strain Fischer 344, males, by gavage, site: preputial gland, lesion: adenoma + adenoma, bilateral, dosed 103 weeks, study length 104 weeks) was 21.5 mg/kg/day; the TD50 (rat, strain Fischer 344, males, by gavage, site: skin, lesion: keratoacanthoma, dosed 103 weeks, study length 104 weeks) was 16.4 mg/kg/day; the TD50 (rat, strain Fischer 344, males, by gavage, site: subcutaneous tissue, lesion: fibroma, dosed 103 weeks, study length 104 weeks) was determined as 18.1 mg/kg/day; the TD50 (rat, strain Fischer 344, males, by gavage, site: testis, lesion: interstitial-cell adenoma, dosed 103 weeks, study length 104 weeks) worked out at 3.14 mg/kg/day.
On to `Nc1ccc(/C=C/c2ccc(N)c(S(=O)(=O)O)c2)c(S(=O)(=O)O)c1`, for which, under “mouse, strain B6C3F1, females, in feed, site: any site (literature study), lesion: several types, types named in the paper, dosed 103 weeks, study length 104 weeks”, the carcinogen call is “negative (inactive)”. Further, the TD50 (mouse, strain B6C3F1, males, in feed, site: any site (literature study), lesion: several types, types named in the paper, dosed 103 weeks, study length 104 weeks) was 12900 mg/kg/day; the TD50 (mouse, strain B6C3F1, males, in feed, site: liver, lesion: hepatocellular adenoma + hepatocellular carcinoma + neoplastic nodule, dosed 103 weeks, study length 104 weeks) was 9720 mg/kg/day; the TD50 (mouse, strain B6C3F1, males, in feed, site: liver, lesion: hepatocellular adenoma, dosed 103 weeks, study length 104 weeks) was 2570 mg/kg/day (inactive); the TD50 (rat, strain Fischer 344, females, in feed, site: any site (literature study), lesion: several types, types named in the paper, dosed 103 weeks, study length 104 weeks) is 17600 mg/kg/day (inactive); the TD50 (rat, strain Fischer 344, males, in feed, site: any site (literature study), lesion: several types, types named in the paper, dosed 103 weeks, study length 104 weeks) was 5810 mg/kg/day (inactive); the TD50 (rat, strain Fischer 344, males, in feed, site: liver, lesion: hepatocellular adenoma + hepatocellular carcinoma + neoplastic nodule, dosed 103 weeks, study length 104 weeks) was determined as 5020 mg/kg/day.
`[O-][Cl+]O`: the TD50 came out at 3060 mg/kg/day (mouse, strain B6C3F1, females, in drinking water, site: liver, lesion: several types, types named in the paper, dosed 85 weeks, study length 85 weeks); 169 mg/kg/day (mouse, strain B6C3F1, males, in drinking water, site: any site (literature study), lesion: several types, types named in the paper, dosed 85 weeks, study length 85 weeks); 146 mg/kg/day (mouse, strain B6C3F1, males, in drinking water, site: liver, lesion: hyperplastic nodule, dosed 85 weeks, study length 85 weeks); 110 mg/kg/day (mouse, strain B6C3F1, males, in drinking water, site: liver, lesion: several types, types named in the paper, dosed 85 weeks, study length 85 weeks); 346 mg/kg/day (mouse, strain B6C3F1, males, in drinking water, site: lung, lesion: adenoma, dosed 85 weeks, study length 85 weeks); 237 mg/kg/day (mouse, strain B6C3F1, males, in drinking water, site: lung, lesion: several types, types named in the paper, dosed 85 weeks, study length 85 weeks). For the same compound, the carcinogen call by setting is: (rat, strain Fischer 344, females, in drinking water, site: any site (literature study), lesion: several types, types named in the paper, dosed 85 weeks, study length 85 weeks) “negative (inactive)”; (rat, strain Fischer 344, males, in drinking water, site: any site (literature study), lesion: several types, types named in the paper, dosed 85 weeks, study length 85 weeks) “negative (inactive)”.
Take `CCc1cc(C(N)=S)ccn1`: the TD50 is, setting by setting: (mouse, strain B6C3F1, females, in feed, site: any site (literature study), lesion: several types, types named in the paper, dosed 78 weeks, study length 104 weeks) 450 mg/kg/day (inactive); (mouse, strain BALB/c, females, by gavage, site: liver, lesion: papillary carcinoma, dosed 50 weeks, study length 69 weeks) 240 mg/kg/day (inactive); (mouse, strain BALB/c, females, by gavage, site: lung, lesion: adenoma, dosed 50 weeks, study length 69 weeks) 124 mg/kg/day (inactive); (mouse, strain BALB/c, females, by gavage, site: thyroid gland, lesion: carcinoma, dosed 50 weeks, study length 69 weeks) 69.3 mg/kg/day; (rat, strain Fischer 344, females, in feed, site: liver, lesion: hepatocellular adenoma + hepatocellular carcinoma + neoplastic nodule, dosed 78 weeks, study length 104 weeks) 508 mg/kg/day; (rat, strain Fischer 344, males, in feed, site: liver, lesion: hepatocellular adenoma + hepatocellular carcinoma + neoplastic nodule, dosed 78 weeks, study length 103 weeks) 623 mg/kg/day. The carcinogen call is “negative (inactive)” (mouse, strain B6C3F1, males, in feed, site: any site (literature study), lesion: several types, types named in the paper, dosed 78 weeks, study length 104 weeks); “negative (inactive)” (rat, strain Fischer 344, females, in feed, site: any site (literature study), lesion: several types, types named in the paper, dosed 78 weeks, study length 104 weeks); “negative (inactive)” (rat, strain Fischer 344, males, in feed, site: any site (literature study), lesion: several types, types named in the paper, dosed 78 weeks, study length 103 weeks).
